Patent publication US6780995B2, “Activated iododerivatives for the treatment of cancer and aids” (Isotechnika Inc., priority 1997, dated 2004)
Like-named read-outs stand apart in the source and are kept apart here.

Key:
COLO 205 cells = test: IC50 assay, inhibition of cell proliferation and growth, COLO 205; assay type: cell-based, human
Procedure: (§1) Cell culture: The human cell lines were propagated under sterile conditions in RPMI 1640 (CellGrow) with 10% fetal bovine serum (Hyclone), 2 mM L-glutamine, and sodium bicarbonate (complete medium) and incubated at 37° C. in HEPA-filtered Sterilcult CO2 tissue culture incubators (Forma) with 5% CO^2 and 95% humidity (Table 1). The murine leukemia cell lines were propagated in Dulbecco's MEM media with 10% equine serum (Hyclone), 2 mM L-glutamine, and sodium bicarbonate (complete medium) and incubated as described. The cells were subcultured twice weekly and used in experiments. The culture was screened for mycoplasma contamination using GeneProbe™ (Fisher) and positive cultures were cured of contaminants over three passages using constant treatment with BM-Cyclin™ antibiotic combination (Boehringer Mannheim). Only cultures confirmed as mycoplasma free were used in testing compounds for anticellular activity.
(§2) The test compounds were stored at 4° C. under light protected conditions. The test compounds were weighed and dissolved in DMSO. The dissolved compounds were then serially diluted in warm medium (RPMI 1640 or Dulbecco's MEM) under constant mixing to minimize precipitation. The positive control drug doxorubicin was diluted in water followed by dilution in media to achieve a final concentration of 200 nM.
(§3) For all experiments, the cells were harvested and centrifuged to remove the media, and suspended in fresh completed medium. Samples were taken to determine cell density. The cell count was determined with a Coulter Model Z1 cell counter and viability was measured with propidium iodide staining followed by analysis on a Coulter EPPICS Elite Flow cytometer. The cell samples sere adjusted with complete medium to a density of 5×10^4/mL for adherent cell lines and 1×10^5/mL for suspension lines. Tissue culture cluster plates (96 well, cat. No. 3595 Costar for adherent human lines and cat No. 25850 Corning for murine leukemias) were seeded with 100 μL cells and incubated as described. Replicate groups of plates were set up for each line to accommodate the exposure options for single agents and combinations. For each dilution 8 wells (100 μL samples of cells) were treated with 100 μL of dosing solution one day after plating. Each cluster plate contained a cell control (8 wells, mock-treated with complete medium), a medium control (3 wells with medium used to subtract out signal generated by media conditions), and an air blank (1 well, for calibrating the plate reader).
(§4) Anticellular effects of the compounds for the adherent cell lines were assessed with neutral red dye. On the day of analysis, the media was removed from sample cell monolayers and replaced with 0.1 mL of neutral red solution (0.5% neutral red, HBSS:RPMI 1640 (1:1), 0.05 M HEPES, pH 7.2). After incubation of the samples at 37° C. for 1 hour the excess dye was removed with blotting and the monolayers were washed twice with 0.85% NaCl solution (0.1 mL per wash). The cell associated dye was extracted by adding 0.2 mL of a 0.1 M NaH2PO4:ethanol (1:1) solution/well followed by incubation for 1 hour at 35° C. The absorbency of neutral red in each monolayer was measured at 550 nm (620 nm reference beam) on a Denley Anthos 2001 microplate reader. The data were transferred via the ARCOM software capture program in Lotus 1-2-3 for processing.
(§5) In assays where technical difficulties due to crystalization of the neutral red occurred the crystal violet staining procedure was employed to measure the amount of cells were left on the plate. Crystal violet staining solution [0.5% crystal violet (w/v), 50% methanol (v/v), 45% saline (v/v), and 5% formalin (v/v)] were prepared on the day of staining. After the media was removed from the sample wells, two drops of crystal violet stain were added to each well and the samples were incubated at ambient temperature for 10 minutes. […]

SK-MEL-5 cells = test: IC50 assay, inhibition of cell proliferation and growth, SK-MEL-5; assay type: cell-based, human
Procedure: as §1, §2, §3, §4, §5

SK-OV-3 cells = test: IC50 assay, inhibition of cell proliferation and growth, SK-OV-3; assay type: cell-based, human
Procedure: as §1, §2, §3, §4, §5

MCF7 cells = test: IC50 assay, inhibition of cell proliferation and growth, MCF7; assay type: cell-based, human; settings: Homo sapiens
Procedure: as §1, §2, §3, §4, §5

M14 cells = test: IC50 assay, inhibition of cell proliferation and growth, M14; assay type: cell-based, human
Procedure: as §1, §2, §3, §4, §5

A549 cells = test: IC50 assay, inhibition of cell proliferation and growth, A549; assay type: cell-based, human
Procedure: as §1, §2, §3, §4, §5

B16 cells = test: IC50 assay, inhibition of cell proliferation and growth, B16; assay type: cell-based; settings: B16 murine melanoma cell line, neutral red or crystal violet, read-out: IC50 Concentrations, B16
Procedure: as §1, §2, §3, §4, §5

P388 cells = test: IC50 assay (XTT), inhibition of cell proliferation and growth, P388; assay type: cell-based; settings: P388 murine leukemia cell line, XTT dye conversion, read-out: IC50 Concentrations, P388
Procedure: as §1, §2, §3
(§6) Anticellular effects of the murine leukemia cell lines were assessed with the XTT dye conversion assay which is more suited to suspension cultures. On the day of analysis XTT[2,3-bis(2-methoxy-4-nitro-5-sulfophenyl)-5-[(phenylamino)carbenyl]-2H-tetrazolium hydroxide, inner salt, sodium salt (Sigma)] was weighed out and dissolved at 1 mg/mL in media. PMS (phenazine methosulfate) was prepared at 5 mM in PBS (phosphate buffered saline) and stored as a stock solution 4° C. The PMS was mixed with dissolved XTT to a final concentration of 0.025 mM. Sample wells were treated with 50 μL of the XTT solution and the plates were incubated for four hours at 37° C. to allow for conversion into the liquid soluble formazan product. After the incubation period the reaction was stopped by adding 10 μL of 10% SDS solution per well and the wells contents of each plate were mixed by agitation. The absorbancy of formazan in each monolayer was measured at 450 nm (620 nm reference beam) on a Denley Anthos 2001 microplate reader. The data were transferred via the ARCOM software capture program into Lotus 1-2-3 for processing.
(§7) Using the procedures described above, concentrations of the Example compounds necessary to inhibit cell proliferation and growth by 50% (1C50 values) were determined in the test cell lines.

RPMI 8226 cells = test: IC50 assay, inhibition of cell proliferation and growth, RPMI 8226; assay type: cell-based; settings: Homo sapiens, RPMI-8226, read-out: IC50 Concentrations, RPM 18226
Procedure: as §1, §2, §3, §7

L1210 cells = test: IC50 assay (XTT), inhibition of cell proliferation and growth, L1210; assay type: cell-based; settings: L1210 murine leukemia cell line; XTT dye conversion; read-out: IC50 Concentrations, L1210
Procedure: as §1, §2, §3, §6, §7

[1] = Homo sapiens, COLO 205, read-out: IC50 Concentrations, COLO 205
[2] = Homo sapiens, SK-MEL-5, read-out: IC50 Concentrations, SK MEL-5
[3] = Homo sapiens, SK-OV-3, read-out: IC50 Concentrations, SK-OV-3
[4] = MCF7, read-out: IC50 Concentrations, MCF 7
[5] = Homo sapiens, M14, read-out: IC50 Concentrations, M14
[6] = Homo sapiens, A549, read-out: IC50 Concentrations, A 549
[7] = Homo sapiens, COLO 205 colon adenocarcinoma cell line, neutral red or crystal violet, read-out: IC50 Concentrations, COLO 205
[8] = Homo sapiens, SK-MEL-5 melanoma cell line, neutral red or crystal violet, read-out: IC50 Concentrations, SK MEL-5
[9] = Homo sapiens, SK-OV-3 ovarian adenocarcinoma cell line, neutral red or crystal violet, read-out: IC50 Concentrations, SK-OV-3
[10] = MCF7 breast adenocarcinoma cell line, neutral red or crystal violet, read-out: IC50 Concentrations, MCF 7
[11] = Homo sapiens, M14 melanoma cell line, neutral red or crystal violet, read-out: IC50 Concentrations, M14
[12] = Homo sapiens, A549 bronchogenic cell line, neutral red or crystal violet, read-out: IC50 Concentrations, A 549

Row | Compound | IC50 (COLO 205 cells; [1]) [µM] | melting point [°C] | IC50 (SK-MEL-5 cells; [2]) [µM] | IC50 (SK-OV-3 cells; [3]) [µM] | IC50 (MCF7 cells; [4]) [µM] | IC50 (M14 cells; [5]) [µM] | IC50 (A549 cells; [6]) [µM] | IC50 (COLO 205 cells; [7]) [µM] | IC50 (B16 cells; Mus musculus) [µM] | IC50 (SK-MEL-5 cells; [8]) [µM] | IC50 (SK-OV-3 cells; [9]) [µM] | IC50 (MCF7 cells; [10]) [µM] | IC50 (M14 cells; [11]) [µM] | IC50 (A549 cells; [12]) [µM] | other results
1 | CN(C)CCNC(=O)c1cc([N+](=O)[O-])ccc1I [Ref. No. 1, (N,N-Dimethylaminoethyl)-2-Iodo-5-Nitro-Benzamide] | 267 | 126 to 128 | 40.1 | 404 | 133 | 474 | 333 | – | – | – | – | – | – | – | –
2 | CCN(CC)CCNC(=O)c1cc([N+](=O)[O-])ccc1I [Ref. No. 2, (N,N-Diethylaminoethyl)-2-Iodo-5-Nitro-Benzamide] | 343 | 124 to 126 | – | – | 128 | – | 333 | – | – | – | – | – | – | – | –
3 | O=C(Nc1ccc2c(C(F)(F)F)cc(=O)oc2c1)c1cc([N+](=O)[O-])ccc1I [Ref. No. 3, 7-(2′-Iodo-5′-Nitro-Benzamido)-4-Trifluoromethyl-2H-1-Benzopyran-2-one] | 39.9 | 223 to 227 | 37.7 | 44 | 114 | 126 | 363 | – | – | – | – | – | – | – | –
4 | O=C(Nc1ccc2ccc(=O)oc2c1)c1cc([N+](=O)[O-])ccc1I [Ref. No. 4, 7-(2′-Iodo-5′-Nitro-Benzamido)-2H-1-Benzopyran-2-one] | – | 273 to 277 | – | – | – | – | – | > 500 | 15.9 | > 500 | 395 | > 500 | > 500 | > 500 | –
5 | O=C(Nc1nccs1)c1cc([N+](=O)[O-])ccc1I [Ref. No. 5, 2-(2′-Iodo-5′-Nitro-Benzamido)-Thiazole] | – | 210 to 213 | – | – | – | – | – | 13.4 | 30.8 | 46.2 | 32.8 | 27 | 17.4 | 48.6 | –
6 | O=C(Nc1ncc([N+](=O)[O-])s1)c1cc([N+](=O)[O-])ccc1I [Ref. No. 6, 2-(2′-Iodo-5′-Nitro-Benzamido)-5-Nitro-Thiazole] | 117 | 230 to 234 | 132 | 130 | 80.9 | 141 | 86.5 | – | – | – | – | – | – | – | –
7 | C=CCNC(=O)c1cc([N+](=O)[O-])ccc1I [Ref. No. 7, N-(Allyl)-2-Iodo-5-Nitro-Benzamide] | – | 155 to 158 | – | – | – | – | – | 38.5 | 45.1 | 124 | 46.4 | – | 41.8 | 134 | IC50 (P388 cells; Mus musculus): 39.4 µM
8 | C#CCNC(=O)c1cc([N+](=O)[O-])ccc1I [Ref. No. 8, N-(Propargyl) 2-Iodo-5-Nitro-Benzamide] | – | 204 to 206 | – | – | – | – | – | 30.6 | 50 | 90.4 | 43.4 | 47.7 | 49 | 46.6 | IC50 (P388 cells; Mus musculus): 25.8 µM
9 | C=C(C)c1ccccc1NC(=O)c1cc([N+](=O)[O-])ccc1I [Ref. No. 9, N-(2′-Iodo-5′-Nitro-Benzoyl) 2-Isopropenyl Aniline] | – | 155 to 158 | – | – | – | – | – | – | 462 | > 500 | > 500 | 100 | > 500 | > 500 | –
10 | NC(=O)c1cc(N)ccc1I [Ref. No. 13] | – | – | – | – | – | – | – | > 500 | 500 | > 500 | > 500 | > 500 | > 500 | > 500 | IC50 (P388 cells; Mus musculus): 439 µM
11 | NC(=O)c1cc([N+](=O)[O-])ccc1I [Ref. No. 15, 2-Iodo-5-Nitro-Benzamide] | – | 260 to 264 | – | – | – | – | – | 33.2 | 134 | 314 | 141 | – | 36.1 | 37.4 | –
12 | O=C(c1cc([N+](=O)[O-])ccc1I)N(C(=O)c1cc([N+](=O)[O-])ccc1I)C1=NCCS1 [Ref. No. 17] | > 500 | – | 42.8 | 32 | 46.9 | 37.9 | 127 | – | – | – | – | – | – | – | IC50 (RPMI 8226 cells): > 50 µM
13 | Cc1csc(N(C(=O)c2cc([N+](=O)[O-])ccc2I)C(=O)c2cc([N+](=O)[O-])ccc2I)n1 [Ref. No. 20] | 42.6 | – | 47.1 | 10.8 | 36.1 | 15.1 | 48.4 | – | – | – | – | – | – | – | IC50 (RPMI 8226 cells): 13.7 µM
14 | O=C(NCCCCCCNC(=O)c1cc([N+](=O)[O-])ccc1I)c1cc([N+](=O)[O-])ccc1I [Ref. No. 24, 1,6-Di-(2′-Iodo-5′-Nitro-Benzamido)-Hexane] | > 500 | – | > 500 | > 500 | > 500 | > 500 | > 500 | – | – | – | – | – | – | – | IC50 (RPMI 8226 cells): > 500 µM
15 | N-(3′-Pyridyl)-2-Iodo-5-Nitrophenyl Hydrazide [Ref. No. 11] | – | – | – | – | – | – | – | – | – | – | – | – | – | – | IC50 (COLO 205 cells; COLO 205 colon adenocarcinoma cell line, neutral red or crystal violet, read-out: IC50 Concentrations, COLO 205): 111 µM; IC50 (B16 cells): 129 µM; IC50 (SK-MEL-5 cells; SK-MEL-5 melanoma cell line, neutral red or crystal violet, read-out: IC50 Concentrations, SK MEL-5): 413 µM; IC50 (SK-OV-3 cells; SK-OV-3 ovarian adenocarcinoma cell line, neutral red or crystal violet, read-out: IC50 Concentrations, SK-OV-3): 381 µM; IC50 (L1210 cells): ≥ 55.6 µM; IC50 (M14 cells; M14 melanoma cell line, neutral red or crystal violet, read-out: IC50 Concentrations, M14): 467 µM; IC50 (P388 cells): > 55.6 µM; IC50 (A549 cells; A549 bronchogenic cell line, neutral red or crystal violet, read-out: IC50 Concentrations, A 549): 387 µM
